Source: patent US10745382B2 (BRISTOL-MYERS SQUIBB COMPANY, priority 2015, dated 2020)
pIC50: −log10 of the molar value. Read-outs that look alike come from different tables or passages of the source.

Biological target: T1, PD-1/PD-L1 (Homo sapiens, UniProt Q9NZQ7)
T1 construct: made in house; host or cells: HEK293T
Assay: PD-1/PD-L1 Homogenous Time-Resolved Fluorescence (HTRF) binding assay
Details: PD-L1-His 10 nM, PD-1-Ig 20 nM, read-out: Range or IC50
Procedure, shortened: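 Read-out is time-resolved FRET between europium cryptate-labelled anti-Ig (1 nM final) and APC-labelled anti-His (20 nM final), both dispensed onto the binding mix. Assay buffer: dPBS containing 0.1% bovine serum albumin and 0.05% Tween-20.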

T1 sequence (Q9NZQ7 with tags, fused parts or gaps): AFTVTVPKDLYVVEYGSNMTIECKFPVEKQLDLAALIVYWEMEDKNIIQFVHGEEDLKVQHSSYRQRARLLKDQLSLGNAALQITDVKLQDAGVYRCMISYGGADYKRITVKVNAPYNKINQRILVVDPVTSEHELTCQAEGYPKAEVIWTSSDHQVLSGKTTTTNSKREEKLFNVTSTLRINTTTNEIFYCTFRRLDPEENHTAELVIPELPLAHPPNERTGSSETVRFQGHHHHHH

pIC50 (value given as range class) | pIC50 (numeric IC50) | Structure (SMILES)
8.00 to 9.68 | – | Cc1c(COc2cc(OCc3cncc(S(C)(=O)=O)c3)c(CNC(C)(CO)CO)cc2Cl)cccc1-c1cccc(OCCCN2CC[C@@H](O)C2)c1Cl [Example 1532, (R)-2-((5-chloro-4-((2′-chloro-3′-(3-(3-hydroxypyrrolidin-1-yl)propoxy)-2-methyl-[1,1′-biphenyl]-3-yl)methoxy)-2-((5-(methylsulfonyl)pyridin-3-yl)methoxy)benzyl)amino)-2-methylpropane-1,3-diol]
8.00 to 9.68 | – | Cc1c(COc2cc(OCc3cncc(S(C)(=O)=O)c3)c(CNC(C)(CO)CO)cc2Cl)cccc1-c1cccc(OCCCN2CC[C@@H](O)C2)c1C [Example 1533, (R)-2-((5-chloro-4-((3′-(3-(3-hydroxypyrrolidin-1-yl)propoxy)-2,2′-dimethyl-[1,1′-biphenyl]-3-yl)methoxy)-2-((5-(methylsulfonyl)pyridin-3-yl)methoxy)benzyl)amino)-2-methylpropane-1,3-diol]
8.00 to 9.68 | – | Cc1c(COc2cc(OCc3cncc(C#N)c3)c(CN3CCC[C@@H]3CO)cc2Cl)cccc1-c1cccc(OCCCN2CCC[C@@H]2CO)c1F [Example 1534, 5-((4-chloro-5-((2′-fluoro-3′-(3-((R)-2-(hydroxymethyl)pyrrolidin-1-yl)propoxy)-2-methyl-[1,1′-biphenyl]-3-yl)methoxy)-2-(((R)-2-(hydroxymethyl)pyrrolidin-1-yl)methyl)phenoxy)methyl)nicotinonitrile]
8.00 to 9.68 | – | Cc1c(COc2cc(OCc3cncc(C#N)c3)c(CN3CC[C@@H](O)C3)cc2Cl)cccc1-c1cccc(OCCCN2CC[C@@H](O)C2)c1Cl [Example 2001, 5-((4-chloro-5-((2′-chloro-3′-(3-((R)-3-hydroxypyrrolidin-1-yl)propoxy)-2-methyl-[1,1′-biphenyl]-3-yl)methoxy)-2-(((R)-3-hydroxypyrrolidin-1-yl)methyl)phenoxy)methyl)nicotinonitrile]
8.00 to 9.68 | – | Cc1c(COc2cc(OCc3cncc(C#N)c3)c(CO)cc2Cl)cccc1-c1cccc(OCCCN2CC[C@@H](O)C2)c1Cl [Example 2002, (R)-5-((4-chloro-5-((2′-chloro-3′-(3-(3-hydroxypyrrolidin-1-yl)propoxy)-2-methyl-[1,1′-biphenyl]-3-yl)methoxy)-2-(hydroxymethyl)phenoxy)methyl)nicotinonitrile]
8.00 to 9.68 | – | Cc1c(COc2cc(OCc3cncc(C#N)c3)c(CNC[C@H](O)CO)cc2Cl)cccc1-c1cccc(OCCCNC[C@H](O)CO)c1Cl [Example 2003, 5-((4-chloro-5-((2′-chloro-3′-(3-(((S)-2,3-dihydroxypropyl)amino)propoxy)-2-methyl-[1,1′-biphenyl]-3-yl)methoxy)-2-((((S)-2,3-dihydroxypropyl)amino)methyl)phenoxy)methyl)nicotinonitrile]
8.00 to 9.68 | – | Cc1c(COc2cc(OCc3cncc(C#N)c3)c(CN[C@@H](CO)C(=O)O)cc2Cl)cccc1-c1cccc(OCCCNC[C@H](O)CO)c1Cl [Example 2004, (S)-2-((5-chloro-4-((2′-chloro-3′-(3-(((S)-2,3-dihydroxypropyl)amino)propoxy)-2-methyl-[1,1′-biphenyl]-3-yl)methoxy)-2-((5-cyanopyridin-3-yl)methoxy)benzyl)amino)-3-hydroxypropanoic Acid]
8.00 to 9.68 | – | Cc1c(COc2cc(OCc3cncc(C#N)c3)c(CO)cc2Cl)cccc1-c1cccc(OCCCNC[C@H](O)CO)c1Cl [Example 2005, (S)-5-((4-chloro-5-((2′-chloro-3′-(3-((2,3-dihydroxypropyl)amino)propoxy)-2-methyl-[1,1′-biphenyl]-3-yl)methoxy)-2-(hydroxymethyl)phenoxy)methyl)nicotinonitrile]
8.00 to 9.68 | – | Cc1c(COc2cc(OCc3cncc(C#N)c3)c(CN[C@@](C)(CO)C(=O)O)cc2Cl)cccc1-c1cccc(OCCCNC[C@H](O)CO)c1Cl [Example 2006, (S)-2-((5-chloro-4-((2′-chloro-3′-(3-(((S)-2,3-dihydroxypropyl)amino)propoxy)-2-methyl-[1,1′-biphenyl]-3-yl)methoxy)-2-((5-cyanopyridin-3-yl)methoxy)benzyl)amino)-3-hydroxy-2-methylpropanoic Acid]
– | 9.06 | Cc1c(COc2cc(OCc3cncc(C#N)c3)c(CN3CCCC[C@H]3C(=O)O)cc2Cl)cccc1-c1cccc(OCCCNC[C@H](O)CO)c1Cl [Example 2007, (S)-1-(5-chloro-4-((2′-chloro-3′-(3-(((S)-2,3-dihydroxypropyl)amino)propoxy)-2-methyl-[1,1′-biphenyl]-3-yl)methoxy)-2-((5-cyanopyridin-3-yl)methoxy)benzyl)piperidine-2-carboxylic Acid]
8.00 to 9.68 | – | Cc1c(COc2cc(OCc3cncc(C#N)c3)c(CN[C@](C)(CO)C(=O)O)cc2Cl)cccc1-c1cccc(OCCCN2CCC[C@H](C(=O)O)C2)c1Cl [Example 2008, (S)-1-(3-((3′-((4-((((R)-2-carboxy-1-hydroxypropan-2-yl)amino)methyl)-2-chloro-5-((5-cyanopyridin-3-yl)methoxy)phenoxy)methyl)-2-chloro-2′-methyl-[1,1′-biphenyl]-3-yl)oxy)propyl)piperidine-3-carboxylic Acid]
7.00 to 8.00 | – | Cc1c(COc2cc(OCc3cncc(C#N)c3)c(CO)cc2Cl)cccc1-c1cccc(OCCCN2CCC[C@H](C(=O)O)C2)c1Cl [Example 2009, (S)-1-(3-((2-chloro-3′-((2-chloro-5-((5-cyanopyridin-3-yl)methoxy)-4-(hydroxymethyl)phenoxy)methyl)-2′-methyl-[1,1′-biphenyl]-3-yl)oxy)propyl)piperidine-3-carboxylic Acid]
8.00 to 9.68 | – | Cc1c(COc2cc(OCc3cncc(C#N)c3)c(CNCCc3ccncc3)cc2Cl)cccc1-c1cccc(OCCCNCCc2ccncc2)c1Cl [Example 2010, 5-((4-chloro-5-((2′-chloro-2-methyl-3′-(3-((2-(pyridin-4-yl)ethyl)amino)propoxy)-[1,1′-biphenyl]-3-yl)methoxy)-2-(((2-(pyridin-4-yl)ethyl)amino)methyl)phenoxy)methyl)nicotinonitrile]
8.00 to 9.68 | – | Cc1c(COc2cc(OCc3cncc(C#N)c3)c(CN3CCN(CCO)CC3)cc2Cl)cccc1-c1cccc(OCCCN2CCN(CCO)CC2)c1Cl [Example 2011, 5-((4-chloro-5-((2′-chloro-3′-(3-(4-(2-hydroxyethyl)piperazin-1-yl)propoxy)-2-methyl-[1,1′-biphenyl]-3-yl)methoxy)-2-((4-(2-hydroxyethyl)piperazin-1-yl)methyl)phenoxy)methyl)nicotinonitrile]
8.00 to 9.68 | – | Cc1c(COc2cc(OCc3cncc(C#N)c3)c(CN[C@](C)(CO)C(=O)O)cc2Cl)cccc1-c1cccc(OCCCN2CC(N(C)C)C2)c1Cl [Example 2013, (R)-2-((5-chloro-4-((2′-chloro-3′-(3-(3-(dimethylamino)azetidin-1-yl)propoxy)-2-methyl-[1,1′-biphenyl]-3-yl)methoxy)-2-((5-cyanopyridin-3-yl)methoxy)benzyl)amino)-3-hydroxy-2-methylpropanoic Acid]
7.00 to 8.00 | – | Cc1c(COc2cc(O)c(CO)cc2Cl)cccc1-c1cccc(OCCCN2CC(N(C)C)C2)c1Cl [Example 2014, 4-chloro-5-((2′-chloro-3′-(3-(3-(dimethylamino)azetidin-1-yl)propoxy)-2-methyl-[1,1′-biphenyl]-3-yl)methoxy)-2-(hydroxymethyl)phenol]
8.00 to 9.68 | – | Cc1c(COc2cc(OCc3cncc(C#N)c3)c(CO)cc2Cl)cccc1-c1cccc(OCCCN2CC(N(C)C)C2)c1Cl [Example 2015, 5-((4-chloro-5-((2′-chloro-3′-(3-(3-(dimethylamino)azetidin-1-yl)propoxy)-2-methyl-[1,1′-biphenyl]-3-yl)methoxy)-2-(hydroxymethyl)phenoxy)methyl)nicotinonitrile]
8.00 to 9.68 | – | Cc1c(COc2cc(OCc3cncc(C#N)c3)c(CN[C@](C)(CO)C(=O)O)cc2Cl)cccc1-c1cccc(OCCCN2CCCCC2)c1Cl [Example 2016, (R)-2-((5-chloro-4-((2′-chloro-2-methyl-3′-(3-(piperidin-1-yl)propoxy)-[1,1′-biphenyl]-3-yl)methoxy)-2-((5-cyanopyridin-3-yl)methoxy)benzyl)amino)-3-hydroxy-2-methylpropanoic Acid]
7.00 to 8.00 | – | Cc1c(COc2cc(O)c(CO)cc2Cl)cccc1-c1cccc(OCCCN2CCCCC2)c1Cl [Example 2017, 4-chloro-5-((2′-chloro-2-methyl-3′-(3-(piperidin-1-yl)propoxy)-[1,1′-biphenyl]-3-yl)methoxy)-2-(hydroxymethyl)phenol]
8.00 to 9.68 | – | Cc1c(COc2cc(OCc3cncc(C#N)c3)c(CO)cc2Cl)cccc1-c1cccc(OCCCN2CCCCC2)c1Cl [Example 2018, 5-((4-chloro-5-((2′-chloro-2-methyl-3′-(3-(piperidin-1-yl)propoxy)-[1,1′-biphenyl]-3-yl)methoxy)-2-(hydroxymethyl)phenoxy)methyl)nicotinonitrile]
8.00 to 9.68 | – | CC(=O)NC1CCN(CCCOc2cccc(-c3cccc(COc4cc(OCc5cncc(C#N)c5)c(CN[C@](C)(CO)C(=O)O)cc4Cl)c3C)c2Cl)C1 (stereo partly drawn) [Example 2019, (2R)-2-((4-((3′-(3-(3-acetamidopyrrolidin-1-yl)propoxy)-2′-chloro-2-methyl-[1,1′-biphenyl]-3-yl)methoxy)-5-chloro-2-((5-cyanopyridin-3-yl)methoxy)benzyl)amino)-3-hydroxy-2-methylpropanoic Acid]
– | 7.20 | CC(=O)NC1CCN(CCCOc2cccc(-c3cccc(COc4cc(O)c(CO)cc4Cl)c3C)c2Cl)C1 (stereo not shown) [Example 2020, N-(1-(3-((2-chloro-3′-((2-chloro-5-hydroxy-4-(hydroxymethyl)phenoxy)methyl)-2′-methyl-[1,1′-biphenyl]-3-yl)oxy)propyl)pyrrolidin-3-yl)acetamide]
